Columns and labels:
Acetylcholinesterase = biological target: T1, Acetylcholinesterase (Rattus norvegicus, UniProt P37136); test: Modified Ellman Assay
T1 sequence (P37136 whole entry): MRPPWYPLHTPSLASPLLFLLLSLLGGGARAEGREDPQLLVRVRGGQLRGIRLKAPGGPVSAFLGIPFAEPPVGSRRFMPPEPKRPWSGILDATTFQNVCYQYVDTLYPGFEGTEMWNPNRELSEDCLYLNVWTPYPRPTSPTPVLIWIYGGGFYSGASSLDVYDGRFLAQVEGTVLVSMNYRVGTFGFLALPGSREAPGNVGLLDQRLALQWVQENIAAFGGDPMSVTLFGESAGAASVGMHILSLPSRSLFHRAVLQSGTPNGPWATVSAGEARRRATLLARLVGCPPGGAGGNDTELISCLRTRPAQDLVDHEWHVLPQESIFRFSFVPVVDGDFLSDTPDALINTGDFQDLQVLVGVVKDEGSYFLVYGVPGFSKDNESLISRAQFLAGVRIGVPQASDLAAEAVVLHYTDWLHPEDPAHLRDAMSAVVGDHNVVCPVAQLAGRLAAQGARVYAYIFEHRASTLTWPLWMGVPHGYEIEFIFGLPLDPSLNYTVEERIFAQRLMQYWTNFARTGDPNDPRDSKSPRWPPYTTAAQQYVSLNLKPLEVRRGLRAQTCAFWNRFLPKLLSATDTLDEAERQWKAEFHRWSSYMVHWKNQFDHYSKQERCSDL
Description: (§1) Then, 5,5'-dithiobis-2-nitrobenzoic acid (DTNB, 0.2%, 30 μL) (J&K Scientific) was added.

[1] = biological target: Carboxylic ester hydrolase (Rattus norvegicus, UniProt Q9JKC1); test: Modified Ellman Assay
Chain of Carboxylic ester hydrolase (Q9JKC1 whole entry): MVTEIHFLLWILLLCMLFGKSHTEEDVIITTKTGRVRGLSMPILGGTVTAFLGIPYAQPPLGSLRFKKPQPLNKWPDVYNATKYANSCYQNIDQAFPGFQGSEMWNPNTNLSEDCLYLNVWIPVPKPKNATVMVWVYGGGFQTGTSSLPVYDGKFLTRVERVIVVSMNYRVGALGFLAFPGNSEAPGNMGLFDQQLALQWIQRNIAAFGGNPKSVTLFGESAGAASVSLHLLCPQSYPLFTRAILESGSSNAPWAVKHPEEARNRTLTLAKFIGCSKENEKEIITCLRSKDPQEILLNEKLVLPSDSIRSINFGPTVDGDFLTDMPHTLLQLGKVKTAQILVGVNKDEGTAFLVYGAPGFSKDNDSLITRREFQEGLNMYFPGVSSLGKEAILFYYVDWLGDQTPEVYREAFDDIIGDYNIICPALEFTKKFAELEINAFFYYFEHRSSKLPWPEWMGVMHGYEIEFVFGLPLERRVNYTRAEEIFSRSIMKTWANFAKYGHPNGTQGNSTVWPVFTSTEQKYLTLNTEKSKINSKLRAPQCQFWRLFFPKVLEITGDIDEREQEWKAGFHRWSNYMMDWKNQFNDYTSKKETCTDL
Description: as §1

| Structure (SMILES) | IC50 (Acetylcholinesterase) [µM] | IC50 [1] [µM] |
| --- | --- | --- |
| O=C(Oc1ccc(-c2cc(=O)c3c(O)c(O)c(O)cc3o2)cc1)N1CCCCC1 [1-Piperidinecarboxylic acid-4-(5,6,7-trihydroxy-4-oxo-4H-1-benzopyran-2-yl)phenyl ester (7g)] | 12.6 | > 100 |
| O=C(Oc1ccc(-c2cc(=O)c3c(O)c(O)c(O)cc3o2)cc1)N1CCCC1 [1-Pyrrolidinecarboxylic acid-4-(5,6,7-trihydroxy-4-oxo-4H-1-benzopyran-2-yl)phenyl ester (7e)] | 40.7 | > 100 |
| O=C(Oc1ccc(-c2cc(=O)c3c(O)c(O)c(O)cc3o2)cc1)N1CCC(Cc2ccccc2)CC1 [4-(Phenylmethyl)-1-piperidinecarboxylic acid-4-(5,6,7-trihydroxy-4-oxo-4H-1-benzopyran-2-yl)phenyl ester (7h)] | 62.2 | 35 |
| O=C(Oc1ccc(-c2cc(=O)c3c(O)c(O)c(O)cc3o2)cc1)N1CCOCC1 [4-Morpholinecarboxylic acid-4-(5,6,7-trihydroxy-4-oxo-4H-1-benzopyran-2-yl)phenyl ester (7f)] | 28.5 | > 100 |
| O=c1cc(-c2ccc(O)cc2)oc2cc(O)c(O)c(O)c12 [5,6,7-trihydroxy-2-(4-hydroxyphenyl)-4H-chromen-4-one] | > 100 | > 100 |
| CC(C)N(C(=O)Oc1ccc(-c2cc(=O)c3c(O)c(O)c(O)cc3o2)cc1)C(C)C [N,N-bis(1-methylethyl)carbamic acid-4-(5,6,7-trihydroxy-4-oxo-4H-1-benzopyran-2-yl)phenyl ester (7c)] | 4 | 42 |
| CCN(CC)C(=O)Oc1ccc(-c2cc(=O)c3c(O)c(O)c(O)cc3o2)cc1 [N,N-diethylcarbamic acid-4-(5,6,7-trihydroxy-4-oxo-4H-1-benzopyran-2-yl)phenyl ester (7b)] | 1.2 | 22.1 |
| CCN(CC)C(=O)Oc1ccc(-c2cc(=O)c3c(OC)c(OC)c(OC)cc3o2)cc1 [N,N-diethylcarbamic acid-4-(5,6,7-trimethoxy-4-oxo-4H-1-benzopyran-2-yl)phenyl ester (7i)] | – | 8.2 |
| CCN(CC)C(=O)Oc1ccc(-c2cc(=O)c3c(O)c(OC)c(OC)cc3o2)cc1 [N,N-diethylcarbamic acid-4-(5-hydroxy-6,7-dimethoxy-4-oxo-4H-1-benzopyran-2-yl)phenyl ester (7j)] | – | 22.6 |
| CCN(CC)C(=O)Oc1ccc(-c2cc(=O)c3c(OC(C)=O)c(OC(C)=O)c(OC(C)=O)cc3o2)cc1 [N,N-diethylcarbamic acid-4-[5,6,7-tris(acetyloxy)-4-oxo-4H-1-benzopyran-2-yl]phenyl ester (7k)] | 1.5 | 50.3 |
| CCN(CC)C(=O)Oc1ccc(-c2cc(=O)c3c(O)c(OC(C)=O)c(OC(C)=O)cc3o2)cc1 [N,N-diethylcarbamic acid-4-[6,7-bis(acetyloxy)-5-hydroxy-4-oxo-4H-1-benzopyran-2-yl]phenyl ester (7l)] | 2 | 62.1 |
| CN(C)C(=O)Oc1ccc(-c2cc(=O)c3c(O)c(O)c(O)cc3o2)cc1 [N,N-dimethylcarbamic acid-4-(5,6,7-trihydroxy-4-oxo-4H-1-benzopyran-2-yl)phenyl ester (7a)] | 6.3 | 32 |
| CCN(C)C(=O)Oc1ccc(-c2cc(=O)c3c(O)c(O)c(O)cc3o2)cc1 [N-ethyl-N-methylcarbamic acid-4-(5,6,7-trihydroxy-4-oxo-4H-1-benzopyran-2-yl)phenyl ester (7d)] | 2.7 | 30.5 |
